The Dmax is the greatest extent of degradation seen. One may read the DC50 as the concentration giving 50% degradation.

Assay [1] deals with T1, EGFR L858R/T790M/C797S (BaF3-LTC cells) (Homo sapiens, UniProt P00533, C797S/L858R/T790M).
T1 construct: expressed in transfected cells; host or cells: BaF3
Briefly: EGFR degradation HTRF assay, BaF3-LTC cells. It counts as cell-based. The settings on record: BaF3-LTC, 16h treatment; for Dmax: maximum percentage of degradation, read-out: LTC Dmax (%); for DC50: read-out: LTC DC50. In a few lines: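 Cells treated 16 h at 37 °C, 5% CO2 in medium with 0.2% DMSO; top final concentration 10 uM, 5-fold dilution, 8 doses. Lysates read by HTRF (665/620 nm); degradation % versus DMSO high control, DC50 from four-parameter fit, Dmax as maximal degradation.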
Background: Time-resolved FRET reads energy transfer from a long-lived donor to a nearby acceptor.

The subject of assay [2] is EGFR Del19/T790M/C797S (BaF3-DTC cells). Briefly: EGFR degradation HTRF assay, BaF3-DTC cells. In kind it is cell-based. The settings on record: 16h treatment; for DTC Dmax (%): maximum percentage of degradation; for DC50: read-out: DTC DC50. In a few lines:
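EGFR remaining after a 16 h, 37 °C exposure (8 doses, 5-fold steps from 10 uM final, 0.2% DMSO) was quantified by HTRF antibodies in cell lysate. Percent inhibition relative to DMSO control was fitted by four-parameter logistic to give DC50; Dmax denotes maximal degradation.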

T1 sequence (P00533 25-1210 T790M/C797S/L858R): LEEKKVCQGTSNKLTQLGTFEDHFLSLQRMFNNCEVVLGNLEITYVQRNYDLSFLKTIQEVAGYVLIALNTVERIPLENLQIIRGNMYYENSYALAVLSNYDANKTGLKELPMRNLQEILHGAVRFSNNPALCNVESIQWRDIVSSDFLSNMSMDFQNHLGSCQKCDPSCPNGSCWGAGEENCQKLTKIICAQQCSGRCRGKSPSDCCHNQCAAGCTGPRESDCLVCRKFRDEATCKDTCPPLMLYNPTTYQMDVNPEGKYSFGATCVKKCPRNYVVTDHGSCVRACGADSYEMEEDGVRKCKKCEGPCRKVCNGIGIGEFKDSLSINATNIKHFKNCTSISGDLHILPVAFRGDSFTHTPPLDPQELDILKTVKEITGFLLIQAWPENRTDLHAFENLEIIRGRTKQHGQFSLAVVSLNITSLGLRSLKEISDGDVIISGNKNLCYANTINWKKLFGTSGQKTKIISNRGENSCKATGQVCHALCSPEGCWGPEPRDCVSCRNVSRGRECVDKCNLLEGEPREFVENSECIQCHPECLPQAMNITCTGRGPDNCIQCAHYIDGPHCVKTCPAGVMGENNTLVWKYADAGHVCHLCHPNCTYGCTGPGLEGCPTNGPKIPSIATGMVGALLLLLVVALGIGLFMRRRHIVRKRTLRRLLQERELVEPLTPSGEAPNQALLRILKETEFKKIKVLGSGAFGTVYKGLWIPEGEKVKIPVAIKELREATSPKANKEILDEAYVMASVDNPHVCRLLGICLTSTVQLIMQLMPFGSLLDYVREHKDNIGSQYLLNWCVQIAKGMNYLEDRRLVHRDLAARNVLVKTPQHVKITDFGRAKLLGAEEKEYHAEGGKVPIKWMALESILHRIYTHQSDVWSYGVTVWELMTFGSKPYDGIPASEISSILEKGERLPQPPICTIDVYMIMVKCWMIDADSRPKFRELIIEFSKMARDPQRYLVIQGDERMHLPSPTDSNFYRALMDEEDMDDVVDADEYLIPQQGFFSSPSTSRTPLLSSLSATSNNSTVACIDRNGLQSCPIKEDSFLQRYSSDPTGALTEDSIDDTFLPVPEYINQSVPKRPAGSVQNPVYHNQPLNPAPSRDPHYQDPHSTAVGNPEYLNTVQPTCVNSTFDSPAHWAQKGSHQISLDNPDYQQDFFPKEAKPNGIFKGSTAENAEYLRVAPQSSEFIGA

For `CCc1cc(Nc2ncc(Br)c(Nc3ccc4nc(C)ccc4c3P(C)(C)=O)n2)c(OC)cc1N1CCC(N2CCN(CC3CN(c4ccc(C5CCC(=O)NC5=O)c(C#N)c4)C3)CC2)CC1` (centres unmarked) [Example 207, 5-(3-((4-(1-(4-((5-bromo-4-((5-(dimethylphosphoryl)-2-methylquinolin-6-yl)amino)pyrimidin-2-yl)amino)-2-ethyl-5-methoxyphenyl)piperidin-4-yl)piperazin-1-yl)methyl)azetidin-1-yl)-2-(2,6-dioxopiperidin-3-yl)benzonitrile], in assay [1], the maximal degradation (Dmax) was 91.3% and the half-maximal degradation concentration (DC50) is 13.2 nM. Moreover, in assay [2], the “DTC Dmax (%)” value is on record as 90.41% and the half-maximal degradation concentration (DC50) is 6.6 nM.
Regarding `CCc1cc(Nc2ncc(Br)c(Nc3ccc4nc(C)ccc4c3P(C)(C)=O)n2)c(OC)cc1N1CCC(N2CCC(C(=O)N3CCC(c4cc(F)c(C5CCC(=O)NC5=O)c(F)c4)CC3)CC2)CC1` (centres unmarked) [Example 700, 3-(4-(1-(1′-(4-((5-bromo-4-((5-(dimethylphosphoryl)-2-methylquinolin-6-yl)amino)pyrimidin-2-yl)amino)-2-ethyl-5-methoxyphenyl)-[1,4′-bipiperidine]-4-carbonyl)piperidin-4-yl)-2,6-difluorophenyl)piperidine-2,6-dione], in assay [1], the Dmax worked out at 92.4% and the 50% degradation concentration (DC50) amounted to 13.1 nM. Moreover, in assay [2], the “DTC Dmax (%)” value was 83.8% and the DC50 stood at 6.49 nM.
The like results for `COc1cc(N2CCC(N3CCN(CCc4ccc(C5CCC(=O)NC5=O)c(F)c4)CC3)CC2)c(C)cc1Nc1ncc(Br)c(Nc2ccc3nccnc3c2P(C)(C)=O)n1` (centres unmarked) [Example 214, 3-(4-(2-(4-(1-(4-((5-bromo-4-((5-(dimethylphosphoryl)quinoxalin-6-yl)amino)pyrimidin-2-yl)amino)-5-methoxy-2-methylphenyl)piperidin-4-yl)piperazin-1-yl)ethyl)-2-fluorophenyl)piperidine-2,6-dione] were, in that order, 75%, 54.9 nM, 85.16% and 13.7 nM.
The like results for `CCc1cc(Nc2ncc(Br)c(Nc3ccc4nc(C)ccc4c3P(C)(C)=O)n2)c(OC)cc1N1CCC(N2CCN(C(=O)CNc3cc(F)c(C4CCC(=O)NC4=O)c(F)c3)CC2)CC1` (centres unmarked) [Example 432, 3-(4-((2-(4-(1-(4-((5-bromo-4-((5-(dimethylphosphoryl)-2-methylquinolin-6-yl)amino)pyrimidin-2-yl)amino)-2-ethyl-5-methoxyphenyl)piperidin-4-yl)piperazin-1-yl)-2-oxoethyl)amino)-2,6-difluorophenyl)piperidine-2,6-dione] were, in that order, 93%, 4.24 nM, 94.91% and 1.19 nM.
The corresponding values for `CCc1cc(Nc2ncc(Br)c(Nc3ccc4nccnc4c3P(C)(C)=O)n2)c(OC)cc1N1CCC(N2CCN(C(=O)[C@H]3CCN(c4ccc5c(c4)CN(C4CCC(=O)NC4=O)C5=O)C3)CC2)CC1` (stereo partly drawn) [Example 240, 3-(5-((S)-3-(4-(1-(4-((5-bromo-4-((5-(dimethylphosphoryl)quinoxalin-6-yl)amino)pyrimidin-2-yl)amino)-2-ethyl-5-methoxyphenyl)piperidin-4-yl)piperazine-1-carbonyl)pyrrolidin-1-yl)-1-oxoisoindolin-2-yl)piperidine-2,6-dione] are 87.7%, 5.95 nM, 89.2% and 3.83 nM.
`COc1cc(N2CCC(N3CCN(CCC4CCN(c5cc(F)c(C6CCC(=O)NC6=O)c(F)c5)CC4)CC3)CC2)c(C)cc1Nc1ncc(Br)c(Nc2ccc3nc(C)ccc3c2P(C)(C)=O)n1` (centres unmarked) [Example 217, 3-(4-(4-(2-(4-(1-(4-((5-bromo-4-((5-(dimethylphosphoryl)-2-methylquinolin-6-yl)amino)pyrimidin-2-yl)amino)-5-methoxy-2-methylphenyl)piperidin-4-yl)piperazin-1-yl)ethyl)piperidin-1-yl)-2,6-difluorophenyl)piperidine-2,6-dione]: in assay [1], the Dmax was 89.6% and the DC50 turned out to be 86.8 nM. In addition, in assay [2], the “DTC Dmax (%)” value is 90.75% and the half-maximal degradation concentration (DC50) was 29.7 nM.
The like results for `CCc1cc(Nc2ncc(Br)c(Nc3ccc4nccnc4c3P(C)(C)=O)n2)c(OC)cc1N1CCC(N2CCN(CCc3ccc(C4CCC(=O)NC4=O)c(F)c3)[C@@H](CO)C2)CC1` (stereo partly drawn) [Example 287, 3-(4-(2-((R)-4-(1-(4-((5-bromo-4-((5-(dimethylphosphoryl)quinoxalin-6-yl)amino)pyrimidin-2-yl)amino)-2-ethyl-5-methoxyphenyl)piperidin-4-yl)-2-(hydroxymethyl)piperazin-1-yl)ethyl)-2-fluorophenyl)piperidine-2,6-dione] were, in that order, 84.8%, 22.9 nM, 88.55% and 5.2 nM.
The corresponding values for `COc1cc(N2CCC(N3CC4CC(C3)N4CCC3CCN(c4cc(F)c(C5CCC(=O)NC5=O)c(F)c4)CC3)CC2)c(C)cc1Nc1ncc(Br)c(Nc2ccc3nccnc3c2P(C)(C)=O)n1` (centres unmarked) [Example 266, 3-(4-(4-(2-(3-(1-(4-((5-bromo-4-((5-(dimethylphosphoryl)quinoxaline-6-yl)amino)pyrimidin-2-yl)amino)-5-methoxy-2-methylphenyl)piperidin-4-yl)-3,6-diazabicyclo[3.1.1]heptan-6-yl)ethyl)piperidin-1-yl)-2,6-difluorophenyl)piperidine-2,6-dione] are 73.6%, 81.9 nM, 83.88% and 50.3 nM.
The corresponding values for `CCc1cc(Nc2ncc(Br)c(Nc3ccc4nccnc4c3P(C)(C)=O)n2)c(OC)cc1N1CCC(N2CCN(C(=O)[C@@H]3CCN(c4ccc(C5CCC(=O)NC5=O)cc4)C3)CC2)CC1` (stereo partly drawn) [Example 224, 3-(4-((R)-3-(4-(1-(4-((5-bromo-4-((5-(dimethylphosphoryl)quinoxalin-6-yl)amino)pyrimidin-2-yl)amino)-2-ethyl-5-methoxyphenyl)piperidin-4-yl)piperazine-1-carbonyl)pyrrolidin-1-yl)phenyl)piperidine-2,6-dione] are 81.5%, 37.2 nM, 87.47% and 8.41 nM.
As for `CCc1cc(Nc2ncc(Br)c(Nc3ccc4nccnc4c3P(C)(C)=O)n2)c(OC)cc1N1CCC(N2CCN(CCN(C)c3ccc4c(c3)C(=O)N(C3CCC(=O)NC3=O)C4)CC2)CC1` (centres unmarked) [Example 249, 3-(6-((2-(4-(1-(4-((5-bromo-4-((5-(dimethylphosphoryl)quinoxalin-6-yl)amino)pyrimidin-2-yl)amino)-2-ethyl-5-methoxyphenyl)piperidin-4-yl)piperazin-1-yl)ethyl)(methyl)amino)-1-oxoisoindolin-2-yl)piperidine-2,6-dione], in assay [1], the Dmax was determined as 86.7% and the DC50 turned out to be 28.6 nM. For the same compound, in assay [2], the “DTC Dmax (%)” value is 90.4% and the DC50 amounted to 3.01 nM.
The corresponding values for `CCc1cc(Nc2ncc(Br)c(Nc3ccc4nc(C)ccc4c3P(C)(C)=O)n2)c(OC)cc1N1CCC(N2CCN(C(=O)C3CCN(c4ccc5c(c4)n(C)c(=O)n5C4CCC(=O)NC4=O)CC3)CC2)CC1` (centres unmarked) [Example 210, 3-(5-(4-(4-(1-(4-((5-bromo-4-((5-(dimethylphosphoryl)-2-methylquinolin-6-yl)amino)pyrimidin-2-yl)amino)-2-ethyl-5-methoxyphenyl)piperidin-4-yl)piperazine-1-carbonyl)piperidin-1-yl)-3-methyl-2-oxo-2,3-dihydro-1H-benzo[d]imidazol-1-yl)piperidine-2,6-dione] are 90.5%, 1.24 nM, 92.69% and 0.781 nM.
In the case of `CCc1cc(Nc2ncc(C(C)=O)c(Nc3ccc4nccnc4c3P(C)(C)=O)n2)c(OC)cc1N1CCC(N2CCN(CCC3CCN(c4cc(F)c(C5CCC(=O)NC5=O)c(F)c4)CC3)CC2)CC1` (centres unmarked) [Example 703, 3-(4-(4-(2-(4-(1-(4-((5-acetyl-4-((5-(dimethylphosphoryl)quinoxalin-6-yl)amino)pyrimidin-2-yl)amino)-2-ethyl-5-methoxyphenyl)piperidin-4-yl)piperazin-1-yl)ethyl)piperidin-1-yl)-2,6-difluorophenyl)piperidine-2,6-dione], in assay [1], the Dmax was 87.8% and the half-maximal degradation concentration (DC50) was 20 nM. In assay [2], the “DTC Dmax (%)” value is reported as 93.35% and the DC50 came out at 6.81 nM.
The corresponding values for `CCc1cc(Nc2ncc(Br)c(Nc3ccc4c(=O)n(C)ccc4c3P(C)(C)=O)n2)c(OC)cc1N1CCC(N2CCN(CCc3cc(F)c(C4CCC(=O)NC4=O)c(F)c3)CC2)CC1` (centres unmarked) [Example 429, 3-(4-(2-(4-(1-(4-((5-bromo-4-((5-(dimethylphosphoryl)-2-methyl-1-oxo-1,2-dihydroisoquinolin-6-yl)amino)pyrimidin-2-yl)amino)-2-ethyl-5-methoxyphenyl)piperidin-4-yl)piperazin-1-yl)ethyl)-2,6-difluorophenyl)piperidine-2,6-dione] are 91.3%, 5.15 nM, 94.9% and 2.33 nM.
Regarding `CCc1cc(Nc2ncc(Br)c(Nc3ccc4nc(C5CC5)ccc4c3P(C)(C)=O)n2)c(OC)cc1N1CCC(N2CCN(CCc3cc(F)c(C4CCC(=O)NC4=O)c(F)c3)CC2)CC1` (centres unmarked) [Example 427, 3-(4-(2-(4-(1-(4-((5-bromo-4-((2-cyclopropyl-5-(dimethylphosphoryl)quinolin-6-yl)amino)pyrimidin-2-yl)amino)-2-ethyl-5-methoxyphenyl)piperidin-4-yl)piperazin-1-yl)ethyl)-2,6-difluorophenyl)piperidine-2,6-dione], in assay [1], the Dmax was 88.3% and the DC50 came out at 8.61 nM. Also, in assay [2], the “DTC Dmax (%)” value is reported as 93.94% and the DC50 was found to be 7.1 nM.

(Values after US20230265116A1, “DEGRADATION OF (EGFR) BY CONJUGATION OF EGFR INHIBITORS WITH E3 LIGASE LIGAND AND METHODS OF USE” (BEIGENE, LTD., priority 2020, published 2023).)
